{"source": "the supplement of paper PMC7017272", "key": {"[1]": {"system": "UT-SCC-24B", "experiment": "maximal % inhibition of viability relative to DMSO; higher = stronger effect", "settings": "culture condition: plastic 2D (no matrix); treatment time: 3 days", "experimental": "(§1)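 HNSCC cell lines (500 cells/well, 384-well) were cultured on plastic, on top of (2D) or embedded (3D) in Matrigel or human leiomyoma matrix Myogel (500 ug/mL; Myogel 3D mixed with rat collagen I). Cells were treated for 3 days with 5 ten-fold concentrations of each drug, and viability was read by CellTiter-Glo. Viability was normalised to DMSO and benzethonium chloride controls and fitted with the FIMM DSRT pipeline to give IC50 (nM), maximal % inhibition and DSS. Suffixes _1/_2/_3 are replicates. Only inhibition-mode (IC50) fits are kept.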"}, "[2]": {"system": "UT-SCC-42A", "experiment": "maximal % inhibition of viability relative to DMSO; higher = stronger effect", "settings": "treatment time: 3 days", "experimental": "as §1"}, "[3]": {"system": "UT-SCC-40", "experiment": "relative IC50 (midpoint of the fitted curve; maximal inhibition may be below 50%); higher = less potent", "settings": "treatment time: 3 days", "in_short": "(§2)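 Three growth formats were used for HPV-negative HNSCC cell lines in 384-well plates at 500 cells/well: bare plastic, wells coated with Matrigel or Myogel (500 µg/mL), and embedding in Matrigel or Myogel plus rat collagen I. Compounds were added at five 10-fold concentrations, and after 3 days CellTiter-Glo 2.0 luminescence was recorded and normalised to vehicle (0.1% DMSO) and cell-killing control wells. IC50, maximal inhibition and drug sensitivity score came from percent-inhibition dose–response fitting in the FIMM pipeline.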"}, "[4]": {"system": "UT-SCC-42B", "experiment": "relative IC50 (midpoint of the fitted curve; maximal inhibition may be below 50%); higher = less potent", "settings": "treatment time: 3 days", "in_short": "as §2"}, "[5]": {"system": "UT-SCC-73", "experiment": "relative IC50 (midpoint of the fitted curve; maximal inhibition may be below 50%); higher = less potent", "settings": "treatment time: 3 days", "in_short": "as §2"}, "[6]": {"system": "UT-SCC-81", "experiment": "relative IC50 (midpoint of the fitted curve; maximal inhibition may be below 50%); higher = less potent", "settings": "treatment time: 3 days", "in_short": "as §2"}, "[7]": {"system": "UT-SCC-44", "experiment": "relative IC50 (midpoint of the fitted curve; maximal inhibition may be below 50%); higher = less potent", "settings": "treatment time: 3 days", "in_short": "as §2"}, "[8]": {"system": "UT-SCC-106A", "experiment": "relative IC50 (midpoint of the fitted curve; maximal inhibition may be below 50%); higher = less potent", "settings": "treatment time: 3 days", "in_short": "as §2"}, "[9]": {"system": "UT-SCC-24B", "experiment": "relative IC50 (midpoint of the fitted curve; maximal inhibition may be below 50%); higher = less potent", "settings": "treatment time: 3 days", "in_short": "as §2"}, "[10]": {"system": "UT-SCC-28", "experiment": "relative IC50 (midpoint of the fitted curve; maximal inhibition may be below 50%); higher = less potent", "settings": "treatment time: 3 days", "in_short": "as §2"}, "[11]": {"system": "UT-SCC-42A", "experiment": "relative IC50 (midpoint of the fitted curve; maximal inhibition may be below 50%); higher = less potent", "settings": "treatment time: 3 days", "in_short": "as §2"}, "[12]": {"settings": "culture condition: embedded in Matrigel"}, "[13]": {"settings": "culture condition: embedded in Myogel + collagen I"}, "[14]": {"settings": "culture condition: on top of Matrigel"}, "[15]": {"settings": "culture condition: on top of Myogel"}, "[16]": {"settings": "culture condition: plastic 2D (no matrix)"}}, "note": "± gives the standard deviation of the averaged measurements."}
{"smiles": "Cn1cnc2c(F)c(Nc3ccc(Br)cc3F)c(C(=O)NOCCO)cc21", "note": "[Binimetinib]", "values": [{"measurement": "maximal % inhibition of viability", "setting": "[1]", "value": "69.4 ± 4.1", "unit": "%"}, {"measurement": "maximal % inhibition of viability", "setting": "[2]; [12]", "value": "48.9 ± 1.6", "unit": "%"}, {"measurement": "maximal % inhibition of viability", "setting": "[2]; [13]", "value": "24.5 ± 4.6", "unit": "%"}, {"measurement": "maximal % inhibition of viability", "setting": "[2]; [14]", "value": "52.2 ± 5.8", "unit": "%"}, {"measurement": "maximal % inhibition of viability", "setting": "[2]; [15]", "value": "28.6 ± 5.7", "unit": "%"}, {"measurement": "maximal % inhibition of viability", "setting": "[2]; [16]", "value": "46.3 ± 2.8", "unit": "%"}, {"measurement": "relative IC50", "setting": "[3]; [12]", "value": 16.5, "unit": "nM"}, {"measurement": "relative IC50", "setting": "[3]; [14]", "value": 39.4, "unit": "nM"}, {"measurement": "relative IC50", "setting": "[3]; [15]", "value": 54, "unit": "nM"}, {"measurement": "relative IC50", "setting": "[3]; [16]", "value": 51.7, "unit": "nM"}, {"measurement": "relative IC50", "setting": "[4]; [12]", "value": 9.72, "unit": "nM"}, {"measurement": "relative IC50", "setting": "[4]; [14]", "value": 47.8, "unit": "nM"}, {"measurement": "relative IC50", "setting": "[4]; [16]", "value": 54.3, "unit": "nM"}, {"measurement": "relative IC50", "setting": "[5]; [12]", "value": 28.2, "unit": "nM"}, {"measurement": "relative IC50", "setting": "[5]; [14]", "value": 23.7, "unit": "nM"}, {"measurement": "relative IC50", "setting": "[5]; [15]", "value": 65.3, "unit": "nM"}, {"measurement": "relative IC50", "setting": "[5]; [16]", "value": 27.9, "unit": "nM"}, {"measurement": "relative IC50", "setting": "[6]; [12]", "value": 9.22, "unit": "nM"}, {"measurement": "relative IC50", "setting": "[6]; [13]", "value": 175, "unit": "nM"}, {"measurement": "relative IC50", "setting": "[6]; [14]", "value": 53.2, "unit": "nM"}, {"measurement": "relative IC50", "setting": "[6]; [15]", "value": 14.9, "unit": "nM"}, {"measurement": "relative IC50", "setting": "[6]; [16]", "value": 74.4, "unit": "nM"}, {"measurement": "relative IC50", "setting": "[7]; [12]", "value": 19.6, "unit": "nM"}, {"measurement": "relative IC50", "setting": "[7]; [15]", "value": 41.3, "unit": "nM"}, {"measurement": "relative IC50", "setting": "[8]; [12]", "value": 8.97, "unit": "nM"}, {"measurement": "relative IC50", "setting": "[8]; [14]", "value": 13.8, "unit": "nM"}, {"measurement": "relative IC50", "setting": "[8]; [15]", "value": 101, "unit": "nM"}, {"measurement": "relative IC50", "setting": "[8]; [16]", "value": 19.3, "unit": "nM"}, {"measurement": "relative IC50", "setting": "[9]; [12]", "value": 115, "unit": "nM"}, {"measurement": "relative IC50", "setting": "[9]; [14]", "value": 101, "unit": "nM"}, {"measurement": "relative IC50", "setting": "[9]; [16]", "value": 69, "unit": "nM"}, {"measurement": "relative IC50", "setting": "[10]; [13]", "value": "> 989", "unit": "nM"}, {"measurement": "relative IC50", "setting": "[10]; [14]", "value": 26.5, "unit": "nM"}, {"measurement": "relative IC50", "setting": "[11]; [12]", "value": 13.8, "unit": "nM"}, {"measurement": "relative IC50", "setting": "[11]; [14]", "value": 8.75, "unit": "nM"}, {"measurement": "relative IC50", "setting": "[11]; [15]", "value": 14.9, "unit": "nM"}, {"measurement": "relative IC50", "setting": "[11]; [16]", "value": 25.5, "unit": "nM"}]}
